Source: publication PMC11409674, “Raffinocyclicin is a novel plasmid-encoded circular bacteriocin produced by Lactococcus raffinolactis with broad-spectrum activity against many gram-positive food pathogens” (Applied and environmental microbiology, 2024)
“Also recorded” adds a separate entry of the source.

Assays:
[1] = test system: Staphylococcus epidermidis DSM 3095; experiment: spot-on-lawn assay; assay type: cell-based; details: producer spot on M17, chloroform-inactivated, overlay ~7.0 log CFU/mL indicator; 37 °C, Aerobic, BHI; true halo, triplicate
[2] = test system: Listeria innocua UCC; experiment: spot-on-lawn assay; assay type: cell-based; details: producer spot on M17, chloroform-inactivated, overlay ~7.0 log CFU/mL indicator; 37 °C, Aerobic, BHI; true halo, triplicate
[3] = test system: VRE APC 1028; experiment: spot-on-lawn assay; assay type: cell-based, vancomycin-resistant enterococci; details: producer spot on M17, chloroform-inactivated, overlay ~7.0 log CFU/mL indicator; 37 °C, Aerobic, BHI; true halo, triplicate
[4] = test system: Staphylococcus aureus DPC 5645; experiment: spot-on-lawn assay; assay type: cell-based; set-up: key: –: no activity; +: 0.5–5 mm inhibition zone; ++: >5–≤10 mm inhibition zone; +++: >10 mm inhibition zone; details: producer spot on M17, chloroform-inactivated, overlay ~7.0 log CFU/mL indicator; 37 °C, Aerobic, BHI; true halo, triplicate
[5] = test system: Escherichia sp. UCC; experiment: spot-on-lawn assay; assay type: cell-based; set-up: key to Activity (inhibition zone): –: no activity; +: 0.5–5 mm inhibition zone; ++: >5–≤10 mm inhibition zone; +++: >10 mm inhibition zone
Procedure: The antimicrobial activity of the strain L. raffinolactis APC 3967 was evaluated on M17 medium by the agar-spot test as described by Giambiagi-deMarval et al. ([42]) with minor modifications ([42]). Briefly, 5 µL of an overnight growth suspension of the producer strain was spotted on the surface of the agar plate and incubated overnight at 30°C. Cells were inactivated by chloroform and overlaid with 3 mL soft agar (0.75% wt/vol) containing the target strain (~7.0 log CFU/mL), and these plates were incubated overnight. The growth conditions of every target strain used in this assay are outlined in Table 1. The interpretation of inhibition was performed by measuring the true halo of the inhibitory zone (total halo – spot size = true halo) and was classified into one of four groups: (i) no inhibition (0 mm); (ii) weak inhibition (0.5–5 mm); (iii) moderate inhibition (>5–≤10 mm); and (iv) strong inhibition (>10 mm). These assays were performed in triplicate.

[6] = test system: E. faecium DSM 26544; experiment: spot-on-lawn assay; assay type: cell-based, Enterococcus faecium; details: producer spot on M17, chloroform-inactivated, overlay ~7.0 log CFU/mL indicator; 37 °C, Aerobic, BHI; true halo, triplicate
[7] = test system: S. aureus C5M; experiment: spot-on-lawn assay; assay type: cell-based, Staphylococcus aureus; set-up: key: –: no activity; +: 0.5–5 mm inhibition zone; ++: >5–≤10 mm inhibition zone; +++: >10 mm inhibition zone; details: producer spot on M17, chloroform-inactivated, overlay ~7.0 log CFU/mL indicator; 37 °C, Aerobic, BHI; true halo, triplicate
[8] = test system: E. faecium DPC 3675; experiment: spot-on-lawn assay; assay type: cell-based, Enterococcus faecium; details: producer spot on M17, chloroform-inactivated, overlay ~7.0 log CFU/mL indicator; 37 °C, Aerobic, BHI; true halo, triplicate
[9] = test system: Staphylococcus pseudointermedius DK 279; experiment: spot-on-lawn assay; assay type: cell-based; set-up: key: –: no activity; +: 0.5–5 mm inhibition zone; ++: >5–≤10 mm inhibition zone; +++: >10 mm inhibition zone; details: producer spot on M17, chloroform-inactivated, overlay ~7.0 log CFU/mL indicator; 37 °C, Aerobic, BHI; true halo, triplicate
[10] = test system: Lactococcus lactis HP; experiment: spot-on-lawn assay; assay type: cell-based; details: producer spot on M17, chloroform-inactivated, overlay ~7.0 log CFU/mL indicator; 30 °C, Aerobic, GM17; true halo, triplicate
[11] = test system: E. faecium DPC 5152; experiment: spot-on-lawn assay; assay type: cell-based, Enterococcus faecium; details: producer spot on M17, chloroform-inactivated, overlay ~7.0 log CFU/mL indicator; 37 °C, Aerobic, BHI; true halo, triplicate
[12] = test system: S. aureus B2M; experiment: spot-on-lawn assay; assay type: cell-based, Staphylococcus aureus; details: producer spot on M17, chloroform-inactivated, overlay ~7.0 log CFU/mL indicator; 37 °C, Aerobic, BHI; true halo, triplicate
[13] = test system: Streptococcus agalactiae 35; experiment: spot-on-lawn assay; assay type: cell-based; details: producer spot on M17, chloroform-inactivated, overlay ~7.0 log CFU/mL indicator; 37 °C, Aerobic, TSA; true halo, triplicate
[14] = test system: VRE APC 1029; experiment: spot-on-lawn assay; assay type: cell-based, vancomycin-resistant enterococci; details: producer spot on M17, chloroform-inactivated, overlay ~7.0 log CFU/mL indicator; 37 °C, Aerobic, BHI; true halo, triplicate
[15] = test system: Lactobacillus delbrueckii subsp. bulgaricus LMG 6901; experiment: spot-on-lawn assay; assay type: cell-based; details: producer spot on M17, chloroform-inactivated, overlay ~7.0 log CFU/mL indicator; 37 °C, Anaerobic, MRS; true halo, triplicate
[16] = test system: VRE APC 1027; experiment: spot-on-lawn assay; assay type: cell-based, vancomycin-resistant enterococci; details: producer spot on M17, chloroform-inactivated, overlay ~7.0 log CFU/mL indicator; 37 °C, Aerobic, BHI; true halo, triplicate
[17] = test system: Clostridium perfringens EM124; assay type: cell-based; details: producer spot on M17, chloroform-inactivated, overlay ~7.0 log CFU/mL indicator; 37 °C, Anaerobic, RCM; true halo, triplicate
[18] = test system: Enterococcus faecium NCD 0942; experiment: spot-on-lawn assay; assay type: cell-based; details: producer spot on M17, chloroform-inactivated, overlay ~7.0 log CFU/mL indicator; 37 °C, Aerobic, BHI; true halo, triplicate
[19] = test system: S. agalactiae 119; experiment: spot-on-lawn assay; assay type: cell-based, Streptococcus agalactiae; details: producer spot on M17, chloroform-inactivated, overlay ~7.0 log CFU/mL indicator; 37 °C, Aerobic, TSA; true halo, triplicate
[20] = test system: Micrococcus luteus APC 4061; experiment: spot-on-lawn assay; assay type: cell-based; details: producer spot on M17, chloroform-inactivated, overlay ~7.0 log CFU/mL indicator; 37 °C, Aerobic, BHI; true halo, triplicate
[21] = test system: Staphylococcus capitis APC 2923; experiment: spot-on-lawn assay; assay type: cell-based; set-up: key: –: no activity; +: 0.5–5 mm inhibition zone; ++: >5–≤10 mm inhibition zone; +++: >10 mm inhibition zone; details: producer spot on M17, chloroform-inactivated, overlay ~7.0 log CFU/mL indicator; 37 °C, Aerobic, BHI; true halo, triplicate
[22] = test system: Listeria monocytogenes EDGe; experiment: spot-on-lawn assay; assay type: cell-based; details: producer spot on M17, chloroform-inactivated, overlay ~7.0 log CFU/mL indicator; 37 °C, Aerobic, BHI; true halo, triplicate
[23] = residual antimicrobial activity after NaOH treatment; assay type: physicochemical; details: NaOH 0.2 M, 37 °C, 4 h
Procedure: The effects of proteinase K (1 mg/mL; Sigma-Aldrich, St Louis, USA), trypsin (1 mg/mL; Merck KgaA, Darmstad, DE), and 0.2 M NaOH on antimicrobial activity were evaluated on agar plates by the methods described previously ([42]). Briefly, 5 µL of an overnight growth suspension of the strain L. raffinolactis APC 3967 was spotted four times on a plate and incubated at optimal conditions. Afterward, the cells were inactivated by chloroform, and 40 µL of the corresponding treatment (protease or NaOH 0.2 M) was spotted around the producer strain. The control was treated with 10 mM PBS, pH 7.4. The plate was incubated at 37°C for 4 h to favor protease activity. The plate was then overlaid with L. lactis HP and incubated at 30°C for 24 h. Results were interpreted by measuring the true halo of the sample, and the following equation calculated the final values of the residual activity: (true halo of treated condition/true halo of the control) × 100 = residual activity (%).

[24] = test system: Klebsiella pneumoniae C02.b; experiment: spot-on-lawn assay; assay type: cell-based; set-up: key: –: no activity; +: 0.5–5 mm inhibition zone; ++: >5–≤10 mm inhibition zone; +++: >10 mm inhibition zone; details: producer spot on M17, chloroform-inactivated, overlay ~7.0 log CFU/mL indicator; 37 °C, Aerobic, BHI; true halo, triplicate
[25] = test system: E. faecalis V583; experiment: spot-on-lawn assay; assay type: cell-based, Enterococcus faecalis; details: producer spot on M17, chloroform-inactivated, overlay ~7.0 log CFU/mL indicator; 37 °C, Aerobic, BHI; true halo, triplicate
[26] = test system: L. lactis ATCC 11454; experiment: spot-on-lawn assay; assay type: cell-based, Lactococcus lactis; details: producer spot on M17, chloroform-inactivated, overlay ~7.0 log CFU/mL indicator; 30 °C, Aerobic, GM17; true halo, triplicate
[27] = test system: Pseudomonas aeruginosa PA-01; experiment: spot-on-lawn assay; assay type: cell-based; set-up: key: –: no activity; +: 0.5–5 mm inhibition zone; ++: >5–≤10 mm inhibition zone; +++: >10 mm inhibition zone; details: producer spot on M17, chloroform-inactivated, overlay ~7.0 log CFU/mL indicator; 37 °C, Aerobic, BHI; true halo, triplicate
[28] = test system: Bacilllus cereus KH 1453; experiment: spot-on-lawn assay; assay type: cell-based; set-up: key: –: no activity; +: 0.5–5 mm inhibition zone; ++: >5–≤10 mm inhibition zone; +++: >10 mm inhibition zone; details: producer spot on M17, chloroform-inactivated, overlay ~7.0 log CFU/mL indicator; 37 °C, Aerobic, BHI; true halo, triplicate
[29] = test system: VRE APC 1026; experiment: spot-on-lawn assay; assay type: cell-based, vancomycin-resistant enterococci; details: producer spot on M17, chloroform-inactivated, overlay ~7.0 log CFU/mL indicator; 37 °C, Aerobic, BHI; true halo, triplicate
[30] = test system: Enterococcus faecalis ATCC 29200; experiment: spot-on-lawn assay; assay type: cell-based; details: producer spot on M17, chloroform-inactivated, overlay ~7.0 log CFU/mL indicator; 37 °C, Aerobic, BHI; true halo, triplicate
[31] = test system: Leuconostoc mesenteroides KH 24; experiment: spot-on-lawn assay; assay type: cell-based; details: producer spot on M17, chloroform-inactivated, overlay ~7.0 log CFU/mL indicator; 30 °C, Aerobic, MRS; true halo, triplicate
[32] = test system: proteases; set-up: method as in 4 sources, ref 33 = [33]; PMID 21948835; doi:10.1128/AEM.06348-11; 33 Masuda Y Ono H Kitagawa H Ito H Mu F Sawa N Zendo T Sonomoto K Identification and characterization of leucocyclicin Q, a novel cyclic bacteriocin produced by Leuconostoc mesenteroides TK41401 Appl ||| ref 27 = [27]; PMID 21057028; doi:10.1128/AEM.01173-10; 27 Borrero J Brede DA Skaugen M Diep DB Herranz C Nes IF Cintas LM Hernández PE Characterization of garvicin ML, a novel circular bacteriocin produced by Lactococcus garvieae DCC43, isolated from mall ||| ref 30 = [30]; PMID 29177092; doi:10.1099/mgen.0.000134; 30 van Heel AJ Montalban-Lopez M Oliveau Q Kuipers OP Genome-guided identification of novel head-to-tail cyclized antimicrobial peptides, exemplified by the discovery of pumilarin Microb Genom 2017 3 ||| ref 29 = [29]; PMID 18552180; doi:10.1128/AEM.00817-08; 29 Martin-Visscher LA van Belkum MJ Garneau-Tsodikova S Whittal RM Zheng J McMullen LM Vederas JC Isolation and characterization of carnocyclin A, a novel circular bacteriocin produced by Carnobacteri; details: cited from earlier work

In the case of raffinocyclicin, the “Activity (inhibition zone)” value [1] is reported as “+ (0.5–5 mm inhibition zone)”, the “Activity (inhibition zone)” value [2] is reported as “++ (>5–≤10 mm inhibition zone)” and the “Activity (inhibition zone)” value [3] is reported as “++ (>5–≤10 mm inhibition zone)”. The “Activity (inhibition zone)” value [4] was “–”, the “Activity (inhibition zone)” value ([5]; producer spot on M17, chloroform-inactivated, overlay ~7.0 log CFU/mL indicator, 37 °C, Aerobic, BHI, true halo, triplicate) was “–” and the “inhibition in the spot-on-lawn assay, in words” value ([5]; spot-on-lawn assay, producer L. raffinolactis APC 3967) was “No inhibition”. The “Activity (inhibition zone)” value [6] was “+ (0.5–5 mm inhibition zone)”, the “Activity (inhibition zone)” value [7] was “–” and the “Activity (inhibition zone)” value [8] was “++ (>5–≤10 mm inhibition zone)”. The “Activity (inhibition zone)” value [9] was “–”, the “Activity (inhibition zone)” value [10] was “+++ (>10 mm inhibition zone)” and the “Activity (inhibition zone)” value [11] was “+ (0.5–5 mm inhibition zone)”. The “Activity (inhibition zone)” value [12] was “+ (0.5–5 mm inhibition zone)”, the “Activity (inhibition zone)” value [13] was “++ (>5–≤10 mm inhibition zone)” and the “Activity (inhibition zone)” value [14] was “++ (>5–≤10 mm inhibition zone)”. The “Activity (inhibition zone)” value [15] was “+ (0.5–5 mm inhibition zone)”, the “Activity (inhibition zone)” value [16] was “++ (>5–≤10 mm inhibition zone)” and the “Activity (inhibition zone)” value [17] was “+++ (>10 mm inhibition zone)”. For the same substance, the “Activity (inhibition zone)” value [18] was “++ (>5–≤10 mm inhibition zone)”, the “Activity (inhibition zone)” value [19] was “++ (>5–≤10 mm inhibition zone)” and the “Activity (inhibition zone)” value [20] was “++ (>5–≤10 mm inhibition zone)”. The “Activity (inhibition zone)” value [21] was “–”, the “Activity (inhibition zone)” value [22] was “+ (0.5–5 mm inhibition zone)” and the “antimicrobial activity after NaOH treatment, in words” value ([23]; indicator L. lactis HP) was “resistant; also recorded: remained unchanged”. For the same substance, the Phenotype ([23]; 40 µL spotted around chloroform-inactivated producer spot, overlay L. lactis HP, 30 °C, 24 h) was “R”, the Residual activity ([23]; 40 µL spotted around chloroform-inactivated producer spot, overlay L. lactis HP, 30 °C, 24 h, true halo treated/control (10 mM PBS pH 7.4) × 100) was 100% and the “Activity (inhibition zone)” value [24] was “–”. For the same substance, the “Activity (inhibition zone)” value [25] was “+ (0.5–5 mm inhibition zone)”, the “Activity (inhibition zone)” value [26] was “+++ (>10 mm inhibition zone)” and the “Activity (inhibition zone)” value [27] was “–”. The “Activity (inhibition zone)” value [28] was “–”, the “Activity (inhibition zone)” value [29] was “++ (>5–≤10 mm inhibition zone)” and the “Activity (inhibition zone)” value [30] was “++ (>5–≤10 mm inhibition zone)”. For the same substance, the “Activity (inhibition zone)” value [31] was “+ (0.5–5 mm inhibition zone)”.

In the case of leucocyclicin Q, the “sensitivity to proteolytic activity” value [32] is listed as “resistant”.

In the case of pumilarin, the “sensitivity to proteolytic activity” value [32] is listed as “low-sensitivity profile”.
